We go through seven compounds from patent US9504421B2, “Moisture indicating hydrophilic polyurethane” (ACTIVE DEVICE DEVELOPMENT LIMITED, priority 2012, dated 2016).

The data set is described as follows: Magnitude of colour change (light absorbance) dry vs damp for colour-formers dip-coated on MDI and TDI HPU foam (Example 25). As to conditions: for Enhancement: light absorbance damp versus dry.

Protocol: A range of colour-formers were dip-coated onto MDI- and TDI-based HPU foams using the following method:
A solution of colour-former in acetone (5 mg/ml) was prepared. A 20×20×5 mm square sample of a TDI-based or MDI-based HPU foam was fully immersed in the colour-former solution (20 ml), taking care to avoid air-locking within the foam. The sample was immediately removed from the solution and excess solution removed with light squeezing followed by hand compression between layers of absorbent tissue.
The sample was oven dried at 70° C. for 10 minutes, resulting in an off-white sample in all cases.
The light absorbance of the resulting samples was recorded in the dry state at the wavelength of maximum light absorbance (when moistened). Each sample was individually fully wet out in deionised water and dried to dampness between absorbent tissue prior to immediate determination of light absorbance at the aforementioned wavelength.

Turning to `CN(C)c1ccc(C2(c3ccc(N(C)C)cc3)OC(=O)c3cc(N(C)C)ccc32)cc1` [Crystal Violet Lactone, crystal violet lactone], the Enhancement was found to be 13.4 (MDI HPU foam) and 14.8 (TDI HPU foam).
Taken in the same sequence, the figures for `CCN(CCC(C)C)c1ccc2c(c1)Oc1cc(C)c(Nc3ccccc3)cc1C21OC(=O)c2ccccc21` (stereo not drawn) [WinCon-205, 6-(N-ethyl, N-isopentylamino)-3-methyl-2-phenylaminofluoran] were 6.3 and 10.3.
Turning to `CCCCN(CCCC)c1ccc2c(c1)Oc1cc(C)c(Nc3ccccc3)cc1C21OC(=O)c2ccccc21` (stereo not drawn) [WinCon-2, 6-dibutylamino-3-methyl-2-phenylaminofluoran], the Enhancement by setting is: (MDI HPU foam) 5.7; (TDI HPU foam) 8.1.
With `CCN(CC)c1ccc2c(c1)Oc1ccc(N(Cc3ccccc3)Cc3ccccc3)cc1C21OC(=O)c2ccccc21` (stereo not drawn) [WinCon Green, 2-dibenzylamino-6-diethylaminofluoran], the Enhancement was 5.7 (MDI HPU foam) and 7.0 (TDI HPU foam).
On to `CCN(CC)c1ccc2c(c1)Oc1cc(C)c(Nc3ccc(C)cc3C)cc1C21OC(=O)c2ccccc21` (stereo not drawn) [WinCon-15, 2-(2,4-dimethylphenylamino)-3-methyl-6-diethylaminofluoran], for which the Enhancement is, setting by setting: (MDI HPU foam) 6.8; (TDI HPU foam) 9.3.
For the compound `CCN(CC)c1ccc2c(c1)Oc1cc(C)c(Nc3ccccc3)cc1C21OC(=O)c2ccccc21` (stereo not drawn) [WinCon-1, 6-diethylamino-3-methyl-2-phenylaminofluoran], the Enhancement (MDI HPU foam) was 6.2 and the Enhancement (TDI HPU foam) was found to be 6.8.
As to `CCN(CC)c1ccc(-c2nc(Oc3ccc(C(C)(C)c4ccc(Oc5nc(-c6ccc(N(CC)CC)cc6)nc6ccccc56)cc4)cc3)c3ccccc3n2)cc1` [Pergascript Yellow I 3R, 4,4′-[(1-methylethylidene)bis(4,1-phenyleneoxy-4,2-quinazolinediyl)]bis[N,N-diethyl]benzamine], the Enhancement by setting is: (MDI HPU foam) 1.1; (TDI HPU foam) 0.7. Moreover, for the setting “on MDI or TDI HPU foams at the loading concentrations employed, damp absorbance versus 0.1 absorbance unit visibility limit”, the “suitability to function as colour-forming indicator” value is “not well-suited”.
